Experimental data: PubChem BioAssay (NCI)
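96-well plates; 48 h exposure; 5 concentrations. Endpoints by linear interpolation between flanking doses. Not reached: highest tested concentration assigned. Definition used: TGI = concentration required for complete inhibition of growth.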

Experiments:
Assay in all cases: growth of human tumour cells (NCI), 48 h
[1] = test system: MDA-MB-231 breast
[2] = test system: NCI-H460 lung
[3] = test system: UACC-62 melanoma
[4] = test system: MALME-3M melanoma
[5] = test system: HOP-92 NSCLC
[6] = test system: RPMI-8226 leukemia
[7] = test system: MCF7 breast
[8] = test system: DU-145 prostate
[9] = test system: K-562 leukemia
[10] = test system: TK-10 renal
[11] = test system: SF-268 CNS
[12] = test system: U251 CNS
[13] = test system: KM12 colon
[14] = test system: SR leukemia
[15] = test system: SNB-19 CNS
[16] = test system: SF-539 CNS
[17] = test system: OVCAR-8 ovarian
[18] = test system: HL-60(TB) leukemia
[19] = test system: SK-MEL-28 melanoma

Row | Compound | TGI [1] [µM] | TGI [2] [µM] | TGI [3] [µM] | TGI [4] [µM] | TGI [5] [µM] | TGI [6] [µM] | TGI [7] [µM] | TGI [8] [µM] | TGI [9] [µM] | TGI [10] [µM] | TGI [11] [µM] | TGI [12] [µM] | TGI [13] [µM] | TGI [14] [µM] | TGI [15] [µM] | TGI [16] [µM] | TGI [17] [µM] | TGI [18] [µM] | TGI [19] [µM]
1 | CCN(CC)CCNc1ccc2nnn3c4ccc(O)cc4c(=O)c1c23 | 18.2 | 4.64 | 22.1 | 19.4 | 18.2 | 19.8 | 28.1 | 27.6 | 30.6 | 18.9 | 21.7 | 18.2 | 12.8 | 1.48 | 22.2 | 18.4 | 17.5 | 25.1 | 24.2
2 | COC(=O)CCC(C)C1CCC2C3C(C[C@H](OC(C)=O)[C@]12C)[C@@]1(C)CCC2(C[C@H]1C[C@H]3OC(C)=O)OOC1(CC[C@]3(C)C4C[C@H](OC(C)=O)[C@]5(C)C(C(C)CCC(=O)OC)CCC5C4[C@H](OC(C)=O)C[C@@H]3C1)OO2 (stereo partly specified) | > 100 | > 100 |  | > 100 |  | > 100 | > 100 | > 100 | > 100 | > 100 | > 100 | > 100 | > 100 | 99.1 | > 100 |  | > 100 | > 100 | > 100
3 | O=C1C=C(OCCCCl)C(=O)c2c(O)ccc(O)c21 | 3.39 | 3.1 | 0.882 | 0.322 | 2.89 | 6.01 | 0.438 | 0.863 | 5.86 | 3.46 | 3.16 | 3.56 | 3.37 | 3.52 | 3.55 | 2.76 | 7.59 | 3.03 | 2.08
4 | CC(C)(C)c1cc2c(O)c(c1)Cc1cc(C(C)(C)C)cc(c1O)Cc1cc(C(C)(C)C)cc(c1O)Cc1cc(C(C)(C)C)cc(c1O)Cc1cc(C(C)(C)C)cc(c1O)Cc1cc(C(C)(C)C)cc(c1O)Cc1cc(C(C)(C)C)cc(c1O)Cc1cc(C(C)(C)C)cc(c1O)C2 | > 50 | > 50 | > 50 | > 50 | > 50 | > 50 | > 50 | > 50 | > 50 | > 50 | > 50 | > 50 | > 50 | > 50 | > 50 | > 50 | > 50 | > 50 | > 50
5 | CSc1ccc(/C=C2\N=C(c3ccccc3)N(c3nc4cc(C)c(C)cc4s3)C2=O)cc1 | > 100 | > 100 | > 100 |  | 73.3 | > 100 | 37.2 | > 100 | > 100 | > 100 | > 100 | 36.5 | > 100 | 54.2 | 83.9 | 40.9 | 43.9 | 86.3 | > 100
6 | C1CC[C@H]2SSC3CCCC[C@H]3SSC2C1 (stereo partly specified) | > 100 | > 100 | > 100 |  | > 100 | > 100 | > 100 | > 100 | > 100 | > 100 | > 100 | > 100 | > 100 | > 100 | > 100 | > 100 | > 100 | > 100 | > 100
7 | COc1cc2c(cc1OC)C(=O)/C(=C/c1cc(OC)c(OC)c(OC)c1)C2 | > 100 | > 100 | > 100 | > 100 | > 100 | > 100 | > 100 | > 100 | > 100 |  |  | > 100 | > 100 | > 100 | > 100 |  | > 100 | > 100 | > 100
8 | O=c1c2cc(Cl)cc(Cl)c2oc2nc3n(c(=O)c12)CCCS3 | > 100 | > 100 | > 100 | > 100 | > 100 | > 100 | > 100 | > 100 | > 100 | > 100 | > 100 | > 100 | > 100 | > 100 | > 100 | > 100 |  |  | > 100
9 | Cc1nnc(N)nc1/C=C/c1c(O)ccc2ccccc12 | > 100 | 71.2 | 85 |  | 86.9 | > 100 | > 100 | > 100 | > 100 | > 100 | 96.9 | > 100 | > 100 | > 100 | > 100 |  | > 100 | 71.4 | > 100
10 | FC(F)(Sc1ncc[nH]1)c1nc2ccccc2o1 | > 100 | > 100 | > 100 | > 100 | > 100 | > 100 | > 100 | > 100 | > 100 | > 100 | > 100 | > 100 | > 100 | > 100 |  | > 100 | > 100 |  | > 100
11 | O=C(CSc1nc2ccc(I)cc2c(=O)n1Cc1ccccc1)NNC(=O)c1ccccc1 | 28.2 | > 100 | > 100 |  | 28.2 | 28 | 23.2 | 45.9 | 15.5 | 27.4 | 20.8 | > 100 | > 100 | 23.7 | 63.3 | 8.11 | 20.7 | > 100 | 36.6
12 | C/C(=N\Nc1nc2cccnc2s1)c1ccccn1 | 38.6 | > 100 |  | 42 |  | > 100 | > 54.8 | > 100 | > 100 |  |  | > 100 | > 33.6 | > 100 | > 87 | 20.6 | 0.0147 | > 100 | > 100
13 | O=C(c1ccc(Cl)cc1)N(C(=S)OCc1ccccn1)c1ccccc1 | > 100 |  | > 100 | > 100 |  | > 100 | > 100 | > 100 | > 100 | > 100 | > 100 | > 100 | > 100 | > 100 | > 100 | > 100 | > 100 | > 100 | > 100
14 | CC1CCC2(CC1)NC1=C(CC(C)CC1)C1=C2CC(C)CC1 (stereo unspecified) | 53.9 | 75.7 |  | 74.5 | 39.4 | 55.6 | 34.5 | > 100 | 42.9 | 89.2 |  | 33.5 | 40.2 | 55.8 | 78.2 | 40.6 | 65.6 | 35.9 | 35
15 | NC12CCC(CC1=O)C2 (stereo unspecified) | > 100 |  | > 100 | > 100 | > 100 | > 100 | > 100 | > 100 | > 100 | > 100 | > 100 | > 100 | > 100 | > 100 |  | > 100 | > 100 | > 100 | > 100
16 | COc1ccc2[nH]c3c(C)c4ccnc(NCCCN(C)CCCNc5ccc6ncn7c8ccccc8c(=O)c5c67)c4c(C)c3c2c1 | 1.2 | 0.682 | 9.18 | 5.92 | 19.2 | 4.56 | 2.61 | 4.14 | 4.25 | 5.49 | 17.3 | 1.12 | 4.65 | 1.61 | 3.42 | 0.379 | 7.16 |  | 21.9
17 | COC(=O)C1=C(C(=O)OC)SC2(S1)C(C(=O)OC)=C(C(=O)OC)Sc1c2ssc1=Nc1ccc(Cl)cc1 | 2.17 | 1.37 | 2.42 |  | 1.93 |  | 2.42 | 1.65 | 5.78 | 2.69 |  | 2.64 | 2.11 | 1.73 | 2.95 | 1.68 | 3.25 | 6.74 | 3.66
18 | O=c1[nH]c(=O)n(C2OC(CO)C(O)C2O)cc1Oc1ccccc1 (stereo unspecified) | > 100 | > 100 | > 100 | > 100 | > 100 |  | > 100 | > 100 | > 100 | > 100 | > 100 | > 100 | > 100 | > 100 | > 100 | > 100 | > 100 | > 100 | > 100
19 | O=C(O)c1ccc(C2SCc3nc4ccccc4n32)cc1 (stereo unspecified) | > 100 | > 100 |  | > 100 | > 100 | > 100 | > 100 | > 100 | > 100 | > 100 | > 100 | > 100 | > 100 | > 100 | > 100 | > 100 | > 100 | > 100 | > 100
20 | COc1ccc(C2C3CCc4ccccc4C3=NN2S(=O)(=O)c2ccc(/C=C/C(=O)O)cc2)cc1 (stereo unspecified) | > 100 | 96.5 | 23.8 | 23.1 | > 100 | 16 | 6.55 | > 100 | 15.7 | > 100 | 71.2 | 11.6 | 43.4 | 6.9 | > 100 | 6.29 | 92.5 | 9.67 | 
21 | CCOC1Oc2ccccc2-c2nc(SC)ncc21 (stereo unspecified) | > 100 | > 100 | > 100 |  | > 100 | > 100 | > 100 | > 100 |  | > 100 | > 100 | > 100 | > 100 | > 100 | > 100 | > 100 | > 100 | > 100 | 
22 | COc1ccc(/C=C2\CCC/C(=C\c3ccc(O)c(CN4CCCCC4)c3)C2=O)cc1 | 35.2 | 44.8 | 36.1 | 49 | 51.6 | > 43.8 | 28.5 | 36.9 | > 100 | 52.1 | 13.1 | 33.9 |  | 19.8 | 70.2 | 16.1 | 13.6 | > 100 | 42.2
23 | CSC12c3cc(C)n(-c4ccccc4)c3CC(C)(C)CN1C(=O)C2Oc1ccccc1 (stereo unspecified) | > 100 | > 100 | > 100 |  | > 100 | > 100 | > 100 | > 100 | > 100 |  |  | > 100 | > 100 | > 100 | > 100 | > 100 | > 100 |  | > 100
24 | Cc1cc(S(=O)(=O)/N=C(/[N-]S(=O)(=O)c2ccc(Cl)cc2)[n+]2ccc(N(C)C)cc2)c(SCC(=O)O)cc1Cl | > 100 | > 100 | > 100 | > 100 | 54.3 | > 100 | > 100 | > 100 | > 100 | > 100 | > 100 | > 100 | > 100 | > 100 | > 100 | > 100 | > 100 | > 100 | 
25 | O=C(O)CCCc1ccc2ccccc2c1 | > 100 | > 100 | > 100 |  | > 100 | > 100 | > 100 | > 100 | > 100 | > 100 | > 100 | > 100 | > 100 | > 100 | > 100 | > 100 | > 100 | > 100 | > 100
26 | O=C1CSC(c2c[nH]c3ccccc23)N1c1ccccc1[N+](=O)[O-] (stereo unspecified) | > 100 | > 100 | > 100 |  | > 100 | > 100 | > 100 | > 100 | > 100 | > 100 | > 100 | > 100 | > 100 | > 100 | > 100 | > 100 | > 100 | > 100 | > 100
